# Square brackets hold non-standard residues; d marks the D form. Peptide text beside a SMILES is read from it. dHis(τ-Bn) = N[C@H](Cc1cn(Cc2ccccc2)cn1)C(=O)O; pGlu = O=C1CC[C@@H](C(=O)O)N1
# Tests used:
# GnRHR = target: T1, GnRHR (Homo sapiens, UniProt P30968); conditions: 1000.0
# T1 sequence (P30968 1-328): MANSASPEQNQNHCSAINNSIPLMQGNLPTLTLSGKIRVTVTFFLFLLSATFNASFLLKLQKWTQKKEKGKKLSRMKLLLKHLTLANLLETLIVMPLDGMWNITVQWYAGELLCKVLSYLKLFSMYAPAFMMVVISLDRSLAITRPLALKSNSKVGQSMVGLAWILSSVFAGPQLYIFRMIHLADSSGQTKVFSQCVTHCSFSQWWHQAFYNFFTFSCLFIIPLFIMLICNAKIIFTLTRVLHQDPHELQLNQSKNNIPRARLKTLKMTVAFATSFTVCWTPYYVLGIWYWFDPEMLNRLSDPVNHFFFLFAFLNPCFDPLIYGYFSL
# [1] = Solubility analysis in PBS (Analysis Method B); type: physicochemical; conditions: pH 7.4
# Protocol: The solubility of compounds of the invention was tested as described in the general methods. Solubility was then graded according to a rating between 1 to 5, where 1 is most soluble and 5 is least soluble.
# CD4+ and CD8+ T cells = experiment: MHC class I expression on T cells after stimulation of PBMCs, flow cytometry; type: cell-based, human; conditions: PBMCs from healthy donor, with IL-2, 72 hours
# Protocol: FIG. 1: Expression of MHC class I after stimulation of T cells with increasing concentrations of GnRH II. PBMCs from a healthy donor was stimulated with GnRH II and IL-2 for 72 hours. Data points represent mean fluorescent intensity of MCH class I expression on CD4^+ T cells (blue triangles) or CD8^+ T cells (black squares) measured with flow cytometry. Human peripheral blood mononuclear cells (PBMCs) were purified from healthy donors with Ficoll-Hypaque density centrifugation. Cells were cultured in RPMI-1640 medium (Invitrogen) supplemented with 10% fetal bovine serum, 100 μg/mL ampicilin and 100 μg/mL streptomycin for 24-72 hours in 37° C., 5% CO2. Cells were stimulated with a compound according to the invention and analysed for expression of cell specific surface markers and […] (monoclonal antibodies from BD Pharmingen) with flow cytomtery.
Compound,GNRHR Stimulation at 1 μM (GnRHR) [percentage],Solubility grading [1],MHC class I expression on T cells (CD4+ and CD8+ T cells)
"CCNC(=O)[C@@H]1CCCN1C(=O)[C@H](Cc1ccc(O)cc1)NC(=O)[C@H](Cc1c[nH]c2ccccc12)NC(=O)[C@@H](Cc1cn(Cc2ccccc2)cn1)NC(=O)[C@H](Cc1c[nH]cn1)NC(=O)[C@H](CO)NC(=O)[C@H](Cc1c[nH]c2ccccc12)NC(=O)[C@H](Cc1c[nH]cn1)NC(=O)[C@@H]1CCC(=O)N1 [Compound 63, pGlu-His-Trp-Ser-His-D-Bhi-Trp-Tyr-Pro-NHEt] ([pGlu]HWSH[dHis(τ-Bn)]WYP-NHEt)",77,5,–
"NC(=O)CNC(=O)[C@@H]1CCCN1C(=O)[C@H](Cc1ccc(O)cc1)NC(=O)[C@H](Cc1c[nH]c2ccccc12)NC(=O)[C@@H](Cc1c[nH]c2ccccc12)NC(=O)[C@H](Cc1ccc(O)cc1)NC(=O)[C@H](CO)NC(=O)[C@H](Cc1c[nH]c2ccccc12)NC(=O)[C@H](Cc1c[nH]cn1)NC(=O)[C@@H]1CCC(=O)N1 [Compound 64, pGlu-His-Trp-Ser-Tyr-D-Trp-Trp-Tyr-Pro-Gly-amide] ([pGlu]HWSY[dW]WYPG-NH2)",50,5,–
"NC(=O)CNC(=O)[C@@H]1CCCN1C(=O)[C@H](Cc1ccc(O)cc1)NC(=O)[C@H](Cc1c[nH]c2ccccc12)NC(=O)[C@@H](Cc1c[nH]c2ccccc12)NC(=O)[C@H](Cc1c[nH]cn1)NC(=O)[C@H](CO)NC(=O)[C@H](Cc1c[nH]c2ccccc12)NC(=O)[C@H](Cc1c[nH]cn1)NC(=O)[C@@H]1CCC(=O)N1 [Compound 65, pGlu-His-Trp-Ser-His-D-Trp-Trp-Tyr-Pro-Gly-amide] ([pGlu]HWSH[dW]WYPG-NH2)",72,4,–
"N=C(N)NCCC[C@H](NC(=O)[C@H](Cc1c[nH]c2ccccc12)NC(=O)[C@@H](Cc1c[nH]c2ccccc12)NC(=O)[C@H](Cc1ccc(O)cc1)NC(=O)[C@H](CO)NC(=O)[C@H](Cc1c[nH]c2ccccc12)NC(=O)[C@H](Cc1c[nH]cn1)NC(=O)[C@@H]1CCC(=O)N1)C(=O)N1CCC[C@H]1C(=O)NCC(N)=O [Compound 66, pGlu-His-Trp-Ser-Tyr-D-Trp-Trp-Arg-Pro-Gly-amide] ([pGlu]HWSY[dW]WRPG-NH2)",83,5,–
"CCNC(=O)[C@@H]1CCCN1C(=O)[C@H](CCCNC(=N)N)NC(=O)[C@H](Cc1c[nH]c2ccccc12)NC(=O)[C@@H](Cc1cn(Cc2ccccc2)cn1)NC(=O)[C@H](Cc1ccc(O)cc1)NC(=O)[C@H](CO)NC(=O)[C@H](Cc1c[nH]c2ccccc12)NC(=O)[C@H](Cc1c[nH]cn1)NC(=O)[C@@H]1CCC(=O)N1 [Compound 67, pGlu-His-Trp-Ser-Tyr-D-Bhi-Trp-Arg-Pro-NHEt] ([pGlu]HWSY[dHis(τ-Bn)]WRP-NHEt)",117,1,–
"CC(C)C[C@H](NC(=O)[C@@H](Cc1c[nH]c2ccccc12)NC(=O)[C@H](Cc1c[nH]cn1)NC(=O)[C@H](CO)NC(=O)[C@H](Cc1c[nH]c2ccccc12)NC(=O)[C@H](Cc1c[nH]cn1)NC(=O)[C@@H]1CCC(=O)N1)C(=O)N[C@@H](CCCNC(=N)N)C(=O)N1CCC[C@H]1C(=O)NCC(N)=O [Compound 68, pGlu-His-Trp-Ser-His-D-Trp-Leu-Arg-Pro-Gly-amide] ([pGlu]HWSH[dW]LRPG-NH2)",86,1,–
NC(=O)CNC(=O)[C@@H]1CCCN1C(=O)[C@H](Cc1ccc(O)cc1)NC(=O)[C@H](Cc1c[nH]c2ccccc12)NC(=O)CNC(=O)[C@H](Cc1c[nH]cn1)NC(=O)[C@H](CO)NC(=O)[C@H](Cc1c[nH]c2ccccc12)NC(=O)[C@H](Cc1c[nH]cn1)NC(=O)[C@@H]1CCC(=O)N1 [GnRH II] ([pGlu]HWSHGWYPG-NH2),–,–,directly activates these cells

# From patent publication US11564969B2, “Immunorhelin compounds for intracellular infections” (ISR IMMUNE SYSTEM REGULATION HOLDING AB (PUBL), priority 2017, dated 2023)
